Data: PMC11320730, “5-Methoxy-2-aminoindane Reverses Diet-Induced Obesity and Improves Metabolic Parameters in Mice: A Potential New Class of Antiobesity Therapeutics” (ACS Pharmacology & Translational Science, 2024)

Legend:
C57Bl/6 mice = assay: Acute effect of MEAI on wheel running and locomotor activity; format: in vivo; details: lean male mice, vs vehicle
Method: Male 6-week-old C57Bl/6 mice (Harlan, Israel) were maintained in standard conditions under a 12 h light/dark cycle and fed ad libitum. A total of 32 animals were divided into four experimental groups (N = 8 mice per group) receiving single doses of 40, 60, or 100 mg/kg of MEAI or vehicle (sterile water), which was administered via oral gavage 2 h prior to the dark phase. The animals were monitored for 48 h postdose for drug tolerability, food and water intakes, and activity and metabolic parameters. At the end of the experiment, the animals were euthanized, and tissues (brain, liver, fat, and kidney) and blood were collected and stored in a frozen state for future analyses.
(§1) The activity energy expenditure was calculated based on eq 7: [drawing 7] 7
(§2) The assessment of wheel running and locomotor activity was performed by using the Promethion High-Definition Behavioral Phenotyping System (Sable Instruments, Inc., Las Vegas, Nevada, USA). Wheel revolutions were measured with a monitor that recorded voluntary wheel running activity, and locomotor activity was quantified using disruptions of infrared XYZ beam arrays with a beam spacing of 0.25 cm. Pedestrian locomotion represented the sum of all directed ambulatory locomotion within the beam break system, using a speed cutoff of 1 cm/s. Total distance represented the sum of all distances traveled within the beam break system, not including any distance run on the wheel in meters (m); this included fine movements (such as grooming and scratching).

[1] = system: serotonin transporter (SERT); set-up: method as in PMID 30904940; details: cited from earlier work
[2] = system: dopamine transporter (DAT); set-up: method as in PMID 30904940; details: cited from earlier work
5-HT1A receptor = target: 5-HT1A receptor; set-up: method as in PMID 30904940; details: cited from earlier work
5-HT2B receptor = target: 5-HT2B receptor; set-up: method as in PMID 30904940; details: cited from earlier work
DIO C57BL/6 mice [3] = assay: Wheel running and locomotor activity in DIO mice; format: in vivo; details: 40 mg/kg/day
Method: (§3) Male C57BL/6 mice were used to establish DIO by feeding them a high-fat diet (HFD; 60% cal/L fat, 20% cal/L protein, and 20% cal/L carbohydrates; Research Diet, D12492) for 18 weeks. After this period, mice were treated with either vehicle (sterile water, N = 8) or MEAI (N = 11) daily for 28 days by gavage at a dose of 40 mg/kg/day. Age-matched control mice (N = 10) on a standard diet (STD; 14% kcal fat, 24% kcal protein, 62% kcal carbohydrates; NIH-31 rodent diet) received vehicle daily. The body weight of all mice was monitored daily, and total body fat and lean mass were determined by EchoMRI-100H (Echo Medical Systems LLC, Houston, Texas, USA). On day 29, at the end of the experimental period, mice were euthanized by a cervical dislocation under anesthesia. The kidneys, brain, liver, and fat pads were removed and weighed, and samples were either snap-frozen or fixed in buffered 4% formalin. Trunk blood was collected to determine the biochemical parameters.
as §1, §2

DIO C57BL/6 mice [4] = assay: Multiparameter metabolic assessment in DIO mice; format: in vivo
Method: as §3
The metabolic profiles and food and water intakes of the mice were assessed using the Promethion High-Definition Behavioral Phenotyping System (Sable Instruments, Inc., Las Vegas, Nevada, USA). MetaScreen software version 2.2.18.0 was used for data acquisition and instrument control. Raw data were processed using ExpeData version 1.8.4 with an analysis script detailing all aspects of the data transformation. Mice with free access to food and water, housed at temperatures of (22–23 °C), were subjected to a standard 12 h light/12 h dark cycle, which consisted of a 48 h acclimation period followed by 24 h of sampling after dosing. Respiratory gases were measured using the GA-3 gas analyzer (Sable Systems, Inc., Las Vegas, Nevada, USA) employing a pull-mode negative-pressure system. Airflow was measured and controlled by an FR-8 instrument (Sable Systems, Inc., Las Vegas, Nevada, USA) at a flow rate of 2000 mL/min. Water vapor was continuously measured, and its dilution effect on O2 and CO2 was mathematically compensated. Respiratory exchange rate (RER) was calculated as the ratio of CO2 produced (VCO2) to O2 consumed (VO2) using eq 1): [drawing 1] 1
Total energy expenditure (TEE) was calculated using VO2 and RER, according to eq 2: [drawing 2] 2
Fat oxidation (FO) and carbohydrate oxidation (CHO) were calculated using VO2 and VCO2 based on eqs 3 and 4, respectively: [drawing 3] 3 [drawing 4] 4
Energy balance and energy flux were derived from eqs 5 and 6: [drawing 5] 5 [drawing 6] 6
The thermic effect of food for each animal was calculated based on its individual food intake in a period of 24 h according to the specific percentage of carbohydrates, fats, and proteins in the consumed diet.
The basal energy expenditure was calculated based on the mean energy expenditure (EE) during the lowest EE in a 30 min period, in kilocalories per hour (kcal/h). This calculation represented the animal’s basal metabolic rate.

dopamine D2 receptor = target: T1, dopamine D2 receptor (Homo sapiens, UniProt P14416); assay: Ligand binding assay (Eurofins); details: read-out: inhibitory activity (% inhibition of the binding of a specific ligand)
T1 construct: Eurofins (contract screening service)
T1 sequence (P14416 whole entry, species assumed): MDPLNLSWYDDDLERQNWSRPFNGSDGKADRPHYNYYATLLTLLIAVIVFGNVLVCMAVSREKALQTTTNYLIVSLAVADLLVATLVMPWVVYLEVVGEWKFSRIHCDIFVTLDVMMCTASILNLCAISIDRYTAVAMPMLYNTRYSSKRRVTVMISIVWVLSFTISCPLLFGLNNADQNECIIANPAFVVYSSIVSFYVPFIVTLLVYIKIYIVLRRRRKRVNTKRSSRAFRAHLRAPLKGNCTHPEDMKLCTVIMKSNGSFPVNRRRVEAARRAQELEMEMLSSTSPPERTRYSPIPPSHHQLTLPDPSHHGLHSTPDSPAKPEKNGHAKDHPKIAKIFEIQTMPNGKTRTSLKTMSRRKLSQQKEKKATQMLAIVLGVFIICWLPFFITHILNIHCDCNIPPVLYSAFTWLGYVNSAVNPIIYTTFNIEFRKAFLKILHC
Method: (§4) MEAI at 10 μM was tested in ligand binding assays at Eurofins Inc., as described previously.[20] Compound binding was calculated as a % inhibition of the binding of a ligand specific for each target. Results showing an inhibition or stimulation higher than 50% are considered to represent significant effects of MEAI. In each experiment, and if applicable, the respective reference compound was tested concurrently with MEAI and the data were compared with historical values determined at Eurofins. The experiment was accepted in accordance with the Eurofins validation Standard Operating Procedure.

MAO-A enzyme = target: T2, MAO-A enzyme (Homo sapiens, UniProt P21397); assay: Ligand binding assay (Eurofins); details: read-out: inhibitory activity (% inhibition of the binding of a specific ligand)
T2 construct: Eurofins (contract screening service)
T2 sequence (P21397 whole entry, species assumed): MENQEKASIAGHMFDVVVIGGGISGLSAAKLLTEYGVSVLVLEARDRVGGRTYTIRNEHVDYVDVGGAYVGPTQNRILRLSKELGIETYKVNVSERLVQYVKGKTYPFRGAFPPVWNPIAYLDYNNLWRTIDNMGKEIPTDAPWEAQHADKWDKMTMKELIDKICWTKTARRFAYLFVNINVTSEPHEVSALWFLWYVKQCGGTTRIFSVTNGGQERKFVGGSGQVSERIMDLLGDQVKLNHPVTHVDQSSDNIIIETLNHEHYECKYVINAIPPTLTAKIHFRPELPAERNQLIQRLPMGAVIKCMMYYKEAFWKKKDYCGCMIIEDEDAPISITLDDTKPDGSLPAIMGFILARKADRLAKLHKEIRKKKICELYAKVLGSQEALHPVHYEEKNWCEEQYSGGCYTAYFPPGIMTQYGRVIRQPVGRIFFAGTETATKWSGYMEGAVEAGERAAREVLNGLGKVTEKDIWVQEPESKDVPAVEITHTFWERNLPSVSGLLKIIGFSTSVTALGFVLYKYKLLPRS
Method: as §4

[5] = system: vesicular monoamine transporter (VMAT); set-up: method as in PMID 29458138; details: cited from earlier work
[6] = single oral dose, all doses (40, 60, 100 mg/kg)
[7] = vs HFD-vehicle, did not surpass STD-vehicle
[8] = DIO mice, 40 mg/kg/day, vs HFD vehicle

## COc1ccc2c(c1)CC(N)C2.Cl (stereo not shown) [MEAI, 2,3-Dihydro-5-methoxy-1H-inden-2-amine hydrochloride]
C57Bl/6 mice; single oral dose 60 mg/kg
  pedestrian speed: significant increase
C57Bl/6 mice; single oral dose 40, 60 or 100 mg/kg
  total number of beam breaks (ambulation and fine movements): minor alterations
C57Bl/6 mice; single oral dose, 40 mg/kg and above
  directed voluntary activity (pedestrian locomotion): significant and dose-dependent increase
C57Bl/6 mice; [6]
  average distance traveled within the cage: significant elevations
  total distance traveled within the cage: significant elevations
C57Bl/6 mice; single oral dose, any dose tested
  sum of voluntary wheel running activity: did not significantly affect
C57Bl/6 mice; single oral dose
  activity-specific energy expenditure: modest insignificant rise
[1]
  interaction with transporter: interacts
[2]
  interaction with transporter: interacts
5-HT1A receptor
  Ki: 2.5 µM
5-HT2B receptor
  Ki: 4.79 µM
DIO C57BL/6 mice [3]
  voluntary wheel running: increased capability to run on the voluntary wheel
  wheel running speed: comparable to the STD-vehicle-treated group
DIO C57BL/6 mice [3]; Results section
  interaction times with food and water dispensers (time budget): extended
DIO C57BL/6 mice [3]; pronounced during nocturnal phase
  voluntary ambulatory behaviors (pedestrian activity and grooming): significantly boosted
DIO C57BL/6 mice [3]; trend toward an increase
  energy expenditure associated with activity levels: did not reach statistical significance
DIO C57BL/6 mice [3]; [7]
  pedestrian activity: increased
  pedestrian speed: increased
  total distance traveled: increased
DIO C57BL/6 mice [4]; DIO mice, 40 mg/kg/day
  basal energy expenditure: significantly boosted
  cumulative TEE: increases
  water consumption: did not exert any significant influence
DIO C57BL/6 mice [4]; DIO mice, 40 mg/kg/day, across all groups
  total food intake over 24 h: similar
DIO C57BL/6 mice [4]; DIO mice, 40 mg/kg/day, across the groups
  overall energy balance: no significant changes
DIO C57BL/6 mice [4]; DIO mice, 40 mg/kg/day, between groups
  thermodynamic (thermic) effect of food: remained unchanged
DIO C57BL/6 mice [4]; DIO mice, 40 mg/kg/day, in comparison to STD vehicle group
  RER: slightly decreased
DIO C57BL/6 mice [4]; DIO mice, 40 mg/kg/day, p = 0.0097 vs HFD vehicle
  differences in TEE by ANCOVA using lean mass as covariant: treatment-dependent
DIO C57BL/6 mice [4]; DIO mice, 40 mg/kg/day, vs HFD and STD vehicle, light and dark phases
  average energy expenditure: significant increase
DIO C57BL/6 mice [4]; [8]
  CHO levels: no direct effect of the drug itself observed
  carbon dioxide production: slightly increased
  oxygen consumption: slightly increased
DIO C57BL/6 mice [4]; DIO mice, 40 mg/kg/day, vs HFD- and STD-vehicle groups
  overall rate of FO: increase
DIO C57BL/6 mice [4]; DIO mice, 40 mg/kg/day, vs vehicle groups
  energy flux: significant increase
DIO C57BL/6 mice [4]; HFD-fed mice regardless of MEAI treatment (40 mg/kg/day), vs STD
  meal size (food intake per meal): significant reduction
Dopamine D2 receptor
  inhibition at 10 µM: > 50%
MAO-A enzyme
  inhibition at 10 µM: > 50%
[5]
  binding inhibition: unaffected
